Experimental data from PubChem BioAssay AID248 (DTP/NCI, 2004).
Values joined by “and” are separate entries in the source; they are usually repeats but may differ in a detail not shown here. Identical values can stand only once. Inconclusive results and toxic doses are left out. Cut-off read from the data, not from the text of the source: active = T/C of 150% or more; inactive = T/C below 125%.

Test system: L1210 leukemia ip in BDF1 mice, survival T/C
Assay: NCI In Vivo Anticancer Drug Screen. Data for tumor model L1210 Leukemia (intraperitoneal) in B6D2F1 (BDF1) mice
Details: endpoint: mean survival time, higher = longer survival
In short: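 Read-out is survival time, reported as the treated-group measurement over the vehicle-control measurement.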

[1] = dose: 100.0 mg/kg/injection, schedule: Q01DX001 (ip), vehicle: saline
[2] = dose: 200.0 mg/kg/injection, schedule: Q01DX001 (ip), vehicle: saline
[3] = dose: 400.0 mg/kg/injection, schedule: Q01DX001 (ip), vehicle: saline
[4] = dose: 100.0 mg/kg/injection, schedule: Q04DX002 (ip), vehicle: Klucel (hydroxypropylcellulose) (HPC)
[5] = dose: 200.0 mg/kg/injection, schedule: Q04DX002 (ip), vehicle: Klucel (hydroxypropylcellulose) (HPC)
[6] = dose: 400.0 mg/kg/injection, schedule: Q04DX002 (ip), vehicle: Klucel (hydroxypropylcellulose) (HPC)
[7] = dose: 100.0 mg/kg/injection, schedule: Q01DX001 (ip), vehicle: carboxymethylcellulose (CMC)
[8] = dose: 200.0 mg/kg/injection, schedule: Q01DX001 (ip), vehicle: carboxymethylcellulose (CMC)
[9] = dose: 400.0 mg/kg/injection, schedule: Q01DX001 (ip), vehicle: carboxymethylcellulose (CMC)
[10] = dose: 100.0 mg/kg/injection, schedule: Q01DX009 (ip), vehicle: saline with Tween-80
[11] = dose: 200.0 mg/kg/injection, schedule: Q01DX009 (ip), vehicle: saline with Tween-80
[12] = dose: 50.0 mg/kg/injection, schedule: Q01DX009 (ip), vehicle: saline with Tween-80
[13] = dose: 100.0 mg/kg/injection, schedule: Q01DX009 (ip), vehicle: saline
[14] = dose: 100.0 mg/kg/injection, schedule: Q04DX003 (ip), vehicle: saline
[15] = dose: 200.0 mg/kg/injection, schedule: Q04DX003 (ip), vehicle: saline
[16] = dose: 12.5 mg/kg/injection, schedule: Q04DX003 (ip), vehicle: saline with Tween-80
[17] = dose: 25.0 mg/kg/injection, schedule: Q01DX009 (ip), vehicle: saline with Tween-80
[18] = dose: 25.0 mg/kg/injection, schedule: Q04DX003 (ip), vehicle: saline with Tween-80
[19] = dose: 100.0 mg/kg/injection, schedule: Q04DX003 (ip), vehicle: saline with Tween-80
[20] = dose: 25.0 mg/kg/injection, schedule: Q01DX009 (ip), vehicle: saline
[21] = dose: 50.0 mg/kg/injection, schedule: Q01DX009 (ip), vehicle: saline
[22] = dose: 100.0 mg/kg/injection, schedule: Q01DX009 (ip), vehicle: Klucel (hydroxypropylcellulose) (HPC)
[23] = dose: 200.0 mg/kg/injection, schedule: Q01DX009 (ip), vehicle: Klucel (hydroxypropylcellulose) (HPC)
[24] = dose: 400.0 mg/kg/injection, schedule: Q01DX009 (ip), vehicle: Klucel (hydroxypropylcellulose) (HPC)
[25] = dose: 100.0 mg/kg/injection, schedule: Q04DX002 (ip), vehicle: saline with Tween-80
[26] = dose: 400.0 mg/kg/injection, schedule: Q04DX002 (ip), vehicle: saline with Tween-80

Measured: T/C

COC(=O)[c-]1[c-][c-][c-][c-]1.COC(=O)[c-]1[c-][c-][c-][c-]1.[Fe]
inactive: dose: 12.5 mg/kg/injection, schedule: Q04DX003 (ip), vehicle: Klucel (hydroxypropylcellulose) (HPC) 94 % of control | dose: 25.0 mg/kg/injection, schedule: Q04DX003 (ip), vehicle: Klucel (hydroxypropylcellulose) (HPC) 90 % of control | dose: 50.0 mg/kg/injection, schedule: Q04DX003 (ip), vehicle: Klucel (hydroxypropylcellulose) (HPC) 90 % of control | dose: 75.0 mg/kg/injection, schedule: Q01DX009 (ip), vehicle: Klucel (hydroxypropylcellulose) (HPC) 103 % of control | dose: 115.0 mg/kg/injection, schedule: Q01DX009 (ip), vehicle: Klucel (hydroxypropylcellulose) (HPC) 93 % of control

N#CCN(CC#N)CCN(CC#N)CCN(CC#N)CC#N
inactive: [1] 104 % of control | [2] 104 % of control | [3] 95 % of control

CCCNC(=O)OC1CCS(=O)(=O)C1 (stereo not drawn)
inactive: [4] 95 % of control | [5] 100 % of control | [6] 95 % of control

CCCNC(=O)Nc1cccc(Cl)c1
inactive: [7] 102 % of control | [8] 109 % of control | [9] 105 % of control

NNC(=O)CCc1ccccc1O
inactive: [10] 93 % of control | [11] 91 % of control | dose: 400.0 mg/kg/injection, schedule: Q01DX009 (ip), vehicle: saline with Tween-80 93 % of control

[Mn+2].[NH-]CC(=O)O.[NH-]CC(=O)O
inactive: [1] 96 % of control

CN(C)c1ccc(/C=N/NC=O)c(Cl)c1
inactive: dose: 10.0 mg/kg/injection, schedule: Q01DX001 (ip), vehicle: acetone 103 % of control | dose: 20.0 mg/kg/injection, schedule: Q01DX001 (ip), vehicle: acetone 110 % of control | dose: 40.0 mg/kg/injection, schedule: Q01DX001 (ip), vehicle: acetone 95 % of control

O=c1ccn(C2CC(O)C(CO)C2)c(=S)[nH]1 (stereo not drawn)
inactive: [12] 103 % of control | [10] 107 % of control | [11] 93 % of control

CCCCCCOC(=O)/C=C(/C)OCCCCCC
inactive: [13] 97 % of control | [14] 94 % of control | dose: 200.0 mg/kg/injection, schedule: Q01DX009 (ip), vehicle: saline 95 % of control | [15] 96 % of control | dose: 400.0 mg/kg/injection, schedule: Q01DX009 (ip), vehicle: saline 92 % of control

CCC(C#N)C1=CCCCCC1 (stereo not drawn)
inactive: [16] 103 % of control | [17] 97 % of control | [18] 97 % of control and 101 % of control | [12] 102 % of control | dose: 50.0 mg/kg/injection, schedule: Q04DX003 (ip), vehicle: saline with Tween-80 110 % of control | [10] 107 % of control | [19] 101 % of control

Cc1cc(SCC(=O)c2ccc(Br)cc2)cc(C)[o+]1
inactive: [20] 92 % of control | [21] 107 % of control | [13] 100 % of control | [14] 97 % of control | [15] 92 % of control

CCOC(=O)c1cc(Cl)c2ccccc2n1
inactive: [1] 96 % of control | [2] 98 % of control | [3] 96 % of control

CCCCCCOCC(O)CNCCN (stereo not drawn)
inactive: dose: 6.25 mg/kg/injection, schedule: Q04DX003 (ip), vehicle: saline with Tween-80 95 % of control | [16] 90 % of control | [18] 96 % of control

NC(=O)CSc1cc(Cl)ccc1Cl
inactive: dose: 100.0 mg/kg/injection, schedule: Q01DX001 (ip), vehicle: other 96 % of control | dose: 200.0 mg/kg/injection, schedule: Q01DX001 (ip), vehicle: other 107 % of control | dose: 400.0 mg/kg/injection, schedule: Q01DX001 (ip), vehicle: other 113 % of control

C1CNC2CCCC2C1 (stereo not drawn)
inactive: dose: 75.0 mg/kg/injection, schedule: Q01DX001 (ip), vehicle: carboxymethylcellulose (CMC) 103 % of control

C=CCC(CC)C(=O)NC(=O)N1CCCc2ccccc21 (stereo not drawn)
inactive: dose: 100.0 mg/kg/injection, schedule: Q01DX001 (ip), vehicle: saline with Tween-80 91 % of control | dose: 200.0 mg/kg/injection, schedule: Q01DX001 (ip), vehicle: saline with Tween-80 86 % of control

O=S(=O)(O)c1ccccc1O
inactive: [20] 101 % of control | [21] 98 % of control

CCN(Cc1ccccc1)C(=O)Nc1ccc(OC)cc1
inactive: [22] 103 % of control | [23] 97 % of control | [24] 106 % of control

O=C(Nc1cccc(O)c1)c1ccccc1Cl
inactive: [22] 96 % of control | [23] 97 % of control | [24] 92 % of control

CC(=O)c1cccc(NC(=O)Nc2ccc(I)cc2)c1
inactive: [22] 97 % of control | [23] 96 % of control | [24] 97 % of control

Cc1cc(OC(=O)Nc2cccc(Cl)c2C)ccc1[N+](=O)[O-]
inactive: [17] 104 % of control and 111 % of control | [12] 97 % of control and 103 % of control | [25] 100 % of control and 107 % of control | [19] 105 % of control | [11] 89 % of control | dose: 200.0 mg/kg/injection, schedule: Q04DX002 (ip), vehicle: saline with Tween-80 101 % of control and 104 % of control | dose: 200.0 mg/kg/injection, schedule: Q04DX003 (ip), vehicle: saline with Tween-80 100 % of control | [26] 93 % of control

CCN(CC)CCCC(C)Nc1cc(N)nc2nc(-c3ccccc3)cnc12 (stereo not drawn) (tested in a mixture with another compound)
inactive: dose: 75.0 mg/kg/injection, schedule: Q01DX001 (ip), vehicle: saline 86 % of control and 91 % of control | dose: 150.0 mg/kg/injection, schedule: Q01DX001 (ip), vehicle: saline 97 % of control

CN(Cc1ccc(Cl)cc1)C(=S)Nc1ccccc1
inactive: [4] 114 % of control | [5] 92 % of control | [6] 96 % of control

C/C(=N\NC(=O)c1ccc([N+](=O)[O-])cc1)c1ccccc1
inactive: [7] 87 % of control | [8] 87 % of control

CN(C)CCN1c2ccccc2Sc2ccccc21
inactive: dose: 12.5 mg/kg/injection, schedule: Q04DX003 (ip), vehicle: saline 97 % of control | dose: 25.0 mg/kg/injection, schedule: Q04DX003 (ip), vehicle: saline 108 % of control | dose: 50.0 mg/kg/injection, schedule: Q04DX003 (ip), vehicle: saline 103 % of control | [14] 101 % of control

O=C1c2ccccc2-c2ccc(Cl)cc21
inactive: [7] 96 % of control | [8] 96 % of control | [9] 96 % of control

O=C1NC(=O)C(c2ccccc2)(c2ccsc2)N1 (stereo not drawn)
inactive: [1] 95 % of control | [2] 90 % of control | [3] 95 % of control

COc1ccc(NC(=O)Nc2ccccc2Cl)c(OC)c1
inactive: [25] 87 % of control | [26] 87 % of control

O=[N+]([O-])c1ccc(N=Nc2c(Cl)cc(O)cc2Cl)cc1
inactive: [17] 96 % of control | [12] 89 % of control | [10] 89 % of control

CC1CN=C(c2ccc(NC(=O)c3ccc(C(=O)Nc4ccc(C5=NCC(C)N5)cc4)c(N)c3)cc2)N1 (stereo not drawn)
inactive: dose: 15.0 mg/kg/injection, schedule: Q01DX Z (ip), vehicle: saline 92 % of control | dose: 30.0 mg/kg/injection, schedule: Q01DX Z (ip), vehicle: saline 86 % of control | dose: 62.5 mg/kg/injection, schedule: Q01DX010 (oral), vehicle: saline 100 % of control | dose: 125.0 mg/kg/injection, schedule: Q01DX010 (oral), vehicle: saline 100 % of control | dose: 250.0 mg/kg/injection, schedule: Q01DX010 (oral), vehicle: saline 101 % of control | dose: 500.0 mg/kg/injection, schedule: Q01DX010 (oral), vehicle: saline 105 % of control

CCCC/C=C1\CCCC(C)C1 (stereo not drawn)
inactive: dose: 100.0 mg/kg/injection, schedule: Q04DX002 (ip), vehicle: saline 101 % of control | dose: 200.0 mg/kg/injection, schedule: Q04DX002 (ip), vehicle: saline 101 % of control | dose: 400.0 mg/kg/injection, schedule: Q04DX002 (ip), vehicle: saline 97 % of control
